Measured values: patent EP1081232A1, “Novel target for antifungals” (K.U. LEUVEN RESEARCH & DEVELOPMENT, priority 1999, dated 2001)

System: tps2Δ strains
Experiment: Sensitivity towards antifungals, growth curves in liquid medium in microtiter wells (bioscreen C)
Format: cell-based, Saccharomyces cerevisiae
Conditions: 10^-6 M ketoconazole, 33°C, cells pre-grown to stationary phase, OD 600 nm, after 24 hours
Method: Sensitivity towards the antifungals itraconazole and ketoconazole was tested in microtiter wells using a bioscreen C apparatus (Life sciences, Labsystems) and on solid culture media.
Yeast cells were pre-grown in YPglucose medium till stationary phase. The cells were diluted to a initial optical density of 0.05 OD and 300 µl of cell suspension was added to each well of a microtiter plate. Three µl of the correct stock solution of the compound, dissolved in DMSO, were added to each well. For the control reactions, only DMSO was added. The microtiter plate was placed in the bioscreen C apparatus and were incubated at 33°C or 37°C, with medium intensity shaking (30 seconds shaking per minute). The optical density at 600 nm was measured every 30 min.
The effect of the addition of 10^-7 M Itraconazole and 10^-6 Ketoconazole on the growth curve of prototrophic tps2Δ strain PVD32 and wild type strain PVD23 at 33°C is shown in Figures 3 and 4 respectively.
The effect of different concentrations of itraconazole on the growth at 33°C of the diploid wild type strain (PVD190) and the diploid heterozygous tps2Δ strain PVD191 was tested and the results are presented in Figure 5.

## CC(=O)N1CCN(c2ccc(OCC3COC(Cn4ccnc4)(c4ccc(Cl)cc4Cl)O3)cc2)CC1 (stereo not shown) [ketoconazole]
  effect on growth: no detectable growth
